ChEMBL document CHEMBL1126446, “Acetylcholine releasing agents as cognition activators. Chemistry and pharmacology of a series of ureas” (1992)

How the values were obtained:
Type in all cases: functional
[1] = organism: Rattus norvegicus; assay: Compound was tested for the selective increase in basal stimulated AcCh release in hippocampus at 100 uM
[2] = organism: Rattus norvegicus; assay: Compound was tested for the selective increase in K+ stimulated AcCh release in hippocampus at 100 uM
[3] = organism: Mus musculus; assay: Compound was tested for the minimum effective dose required for the inhibition of cholinesterase in mouse water maze; settings: read-out: MED
[4] = organism: Rattus norvegicus; assay: Compound was tested for the selective increase in basal stimulated AcCh release in cortex at 100 uM
[5] = organism: Rattus norvegicus; assay: Compound was tested for the selective increase in basal stimulated AcCh release in striatum; design: concentration or dose not given beside the values
[6] = organism: Rattus norvegicus; assay: Compound was tested for the selective increase in K+ stimulated AcCh release in striatum; design: concentration or dose not given beside the values
[7] = organism: Rattus norvegicus; assay: Compound was tested for the selective increase in K+ stimulated AcCh release in cortex at 100 uM
[8] = organism: Rattus norvegicus; assay: Compound was tested for the selective increase in basal stimulated AcCh release in striatum at 100 uM concentration
[9] = organism: Rattus norvegicus; assay: Compound was tested for the selective increase in basal stimulated AcCh release in cortex at 10 uM concentration
[10] = organism: Rattus norvegicus; assay: Compound was tested for the selective increase in basal stimulated AcCh release in cortex at 50 uM concentration
[11] = organism: Rattus norvegicus; assay: Compound was tested for the selective increase in K+ stimulated AcCh release in cortex at 10 uM concentration
[12] = organism: Rattus norvegicus; assay: Compound was tested for the selective increase in basal stimulated AcCh release in brain region of hippocampus at 1 uM concentration
[13] = organism: Rattus norvegicus; assay: Compound was tested for the selective increase in basal stimulated AcCh release in brain region of hippocampus at 100 uM concentration
[14] = organism: Rattus norvegicus; assay: Compound was tested for the selective increase in K+ stimulated AcCh release in cortex at 100 uM concentration
[15] = organism: Rattus norvegicus; assay: Compound was tested for the selective increase in basal stimulated AcCh release in brain region of hippocampus at 10 uM concentration
[16] = organism: Rattus norvegicus; assay: Compound was tested for the selective increase in basal stimulated AcCh release in striatum at 50 uM concentration
[17] = organism: Rattus norvegicus; assay: Compound was tested for the selective increase in basal stimulated AcCh release in striatum at 1 uM concentration
[18] = organism: Rattus norvegicus; assay: Compound was tested for the selective increase in K+ stimulated AcCh release in striatum 10 uM concentration
[19] = organism: Rattus norvegicus; assay: Compound was tested for the selective increase in K+ stimulated AcCh release in striatum 50 uM concentration
[20] = organism: Rattus norvegicus; assay: Compound was tested for the selective increase in basal stimulated AcCh release in brain region of hippocampus at 50 uM concentration
[21] = organism: Rattus norvegicus; assay: Compound was tested for the selective increase in K+ stimulated AcCh release in brain region of hippocampus at 10 uM concentration
[22] = organism: Rattus norvegicus; assay: Compound was tested for the selective increase in K+ stimulated AcCh release in brain region of hippocampus at 50 uM concentration
[23] = organism: Rattus norvegicus; assay: Compound was tested for the selective increase in basal stimulated AcCh release in striatum at 10 uM concentration
[24] = organism: Rattus norvegicus; assay: Compound was tested for the selective increase in basal stimulated AcCh release in cortex at 100 uM concentration
[25] = organism: Rattus norvegicus; assay: Compound was tested for the selective increase in K+ stimulated AcCh release in striatum 100 uM concentration
[26] = organism: Rattus norvegicus; assay: Compound was tested for the selective increase in K+ stimulated AcCh release in brain region of hippocampus at 1 uM concentration
[27] = organism: Rattus norvegicus; assay: Compound was tested for the selective increase in K+ stimulated AcCh release in cortex at 50 uM concentration
[28] = organism: Rattus norvegicus; assay: Compound was tested for the selective increase in basal stimulated AcCh release in cortex at 1 uM concentration
[29] = organism: Rattus norvegicus; assay: Compound was tested for the selective increase in K+ stimulated AcCh release in striatum 1 uM concentration
[30] = organism: Rattus norvegicus; assay: Compound was tested for the selective increase in K+ stimulated AcCh release in brain region of hippocampus at 100 uM concentration
[31] = organism: Rattus norvegicus; assay: Compound was tested for the selective increase in K+ stimulated AcCh release in cortex at 1 uM concentration

Compound: O=C(N(c1ccncc1)c1ccc(Cl)c(Cl)c1)N(C1CCCCC1)C1CCCCC1
- AcCh release (% of control) [1]: 335.2%
- Control [2]: 233.2%

Compound: Cc1ccc(N(C(=O)N(c2ccccc2)c2ccccc2)c2ccncc2)cc1
- AcCh release (% of control) [1]: 186.4%
- Control [2]: 229%
- minimal effective dose [3]: > 32 mg/kg

Compound: O=C(N(c1ccccc1)c1ccccc1)N(c1ccccc1)c1ccccc1
- AcCh release (% of control) [1]: 137.8%
- Control [2]: 420.6%
- Control [4]: 144.1%
- Control [5]: 402.4%
- Control [6]: 303.7%
- Control [7]: 209.3%

Compound: NC(=O)N(c1ccccc1)c1ccccc1
- AcCh release (% of control) [1]: 92.2%
- Control [2]: 128.7%
- Control [4]: 105.1%
- Control [5]: 105.9%
- Control [6]: 98.9%
- Control [7]: 111.4%

Compound: O=C(Nc1ccccc1)N(c1ccccc1)c1ccccc1
- AcCh release (% of control) [1]: 78%
- Control [2]: 151.3%
- Control [4]: 100.3%
- Control [5]: 259.5%
- Control [6]: 224%
- Control [7]: 195.7%

Compound: O=C(N(c1ccccc1)c1ccccc1)N(c1ccncc1)c1ccc(Cl)c(Cl)c1
- AcCh release (% of control) [1]: 124.9%
- Control [2]: 46.6%
- minimal effective dose [3]: 32 mg/kg

Compound: O=C(N(c1ccccc1)c1ccncc1)N(c1ccc(F)cc1)c1ccc(F)cc1
- AcCh release (% of control) [1]: 115.6%
- Control [2]: 48.9%

Compound: O=C(N(c1ccccc1)c1ccccc1)N(c1ccncc1)c1ccc(Cl)cc1
- AcCh release (% of control) [1]: 159.2%
- Control [2]: 231.4%

Compound: O=C(N(c1ccccc1)c1ccccc1)N(c1ccccc1)c1ccncc1
- AcCh release (% of control) [1]: 95.4%
- Control [2]: 129.8%
- Control [4]: 95.2%
- Control [5]: 279.8%
- Control [6]: 206.5%
- Control [7]: 100%

Compound: O=C(N(c1ccccc1)c1ccccc1)N(c1ccncc1)c1cccc(Cl)c1
- AcCh release (% of control) [1]: 103.4%
- Control [2]: 9.8%

Compound: O=C(N(c1ccccc1)c1ccccc1)N(c1ccccc1)c1ccccn1
- AcCh release (% of control) [1]: 113.5%
- Control [2]: 318.3%
- Control [4]: 130%
- Control [5]: 232.1%
- Control [6]: 266.6%
- Control [7]: 158.8%

Compound: Nc1ccncc1N [AMIFAMPRIDINE]
- Control [8]: 224.8%
- Control [9]: 113.8%
- Control [10]: 116%
- Control [11]: 108.1%
- Control [12]: 106.2%
- Control [13]: 127.8%
- Control [14]: 110.8%
- Control [15]: 114%
- Control [16]: 180.9%
- Control [17]: 129.3%
- Control [18]: 111.5%
- Control [19]: 118.5%
- Control [20]: 119%
- Control [21]: 100.8%
- Control [22]: 119.6%
- Control [23]: 164.2%
- Control [24]: 120.8%
- Control [25]: 105.9%
- Control [26]: 121.9%
- Control [27]: 103%
- Control [28]: 104.2%
- Control [29]: 88.8%
- Control [30]: 106.9%
- Control [31]: 93.5%

Compound: Nc1ccncc1 [DALFAMPRIDINE]
- Control [8]: 170.9%
- Control [9]: 102.4%
- Control [10]: 112.2%
- Control [11]: 104%
- Control [12]: 112.7%
- Control [13]: 128.1%
- Control [14]: 96.3%
- Control [15]: 116.8%
- Control [17]: 107.6%
- Control [18]: 105.5%
- Control [21]: 96.5%
- Control [23]: 131.5%
- Control [24]: 118%
- Control [25]: 131.6%
- Control [26]: 97.3%
- Control [27]: 99.9%
- Control [28]: 96.2%
- Control [29]: 94%
- Control [30]: 105%
- Control [31]: 96.7%

Compound: O=C(Nc1ccccc1)Nc1ccccc1 [DIPHENYLUREA]
- AcCh release (% of control) [1]: 89%
- Control [2]: 138.6%
- Control [4]: 101.9%
- Control [5]: 97.1%
- Control [6]: 98.8%
- Control [7]: 125.8%

Compound: NC(=O)Nc1ccccc1 [PHENYLUREA]
- AcCh release (% of control) [1]: 94.1%
- Control [2]: 107.9%
- Control [4]: 105.8%
- Control [5]: 99.3%
- Control [6]: 99.8%
- Control [7]: 116.4%
